According to US12600740B2, “Fluorinated N-acetyl glucosamine analogs and xylose derivatives” (UTI Limited Partnership, priority 2018, dated 2026):
“Also recorded” adds a separate entry of the source.

Columns and labels:
[1] = tested on: heparan sulfate proteoglycans (HSPGs) side chains; assay: Western blot of heparan sulfate GAGs (10E4) produced by astrocytes; assay type: cell-based, mouse
From the text: Compounds that were able to reduce chondroitin GAGs were also investigated for their ability to reduce heparan sulfate GAGs. […] D. & de Vries, H. E. Extensive extracellular matrix depositions in active multiple sclerosis lesions. Neurobiology of disease 24, 484-491 (2006); van Horssen, J., Bö, L., Vos, C. M., Virtanen, I. & de Vries, H. E. Basement membrane proteins in multiple sclerosis-associated inflammatory cuffs: potential role in influx and transport of leukocytes. Journal of neuropathology and experimental neurology 64, 722-729 (2005)] and have detrimental pro-inflammatory capabilities [Parish, C. R. The role of heparan sulphate in inflammation. Nature reviews. Immunology 6, 633-643 (2006)].
Astrocytes were plated in uncoated 6-well plates (3 replicate wells per treatment) at 1×10^6 cells/well in mixed glial media, and incubated at 5% CO2 and 37° C. Astrocytes were treated with compounds at 50 μM in AIM-V media for 48 hours. Media was pooled from 3 replicate wells in 15 ml 100K cutoff centricon tubes (EMD Millipore, #UFC905008), which were spun on an ultracentrifuge at 5000× g for 2 cycles of 10 minutes each. When harvested, the cell lysate was kept on ice for 5 minutes with 250 μL of RIPA buffer (ThermoFisher Scientific #89900) containing proteinase inhibitor, and then collected and centrifuged at 14000 g for 5 minutes. Total protein was quantified using a Bradford assay. Conditioned media that were to be probed for chondroitin 4-sulfate GAGs (Millipore, #MAB2030) were first digested with 0.2 U/ml chondroitinase ABC for overnight at 37° C. to remove chondroitin sulfate sidechains. Blots that were to be probed with CSA (2H6, Cosmo) or CS56 (Abcam #ab11570) were not exposed to chondroitinase ABC. Samples were heat denatured with NuPAGE® LDS Sample buffer at 70° C. for 10 minutes and then loaded into 3-8% tris-acetate pre-cast gels (ThermoFisher, #EA0478BOX). The gels were electrophoresed at a constant 150 V for 90 minutes and transferred to a […] polyvinylidene fluoride membrane at a constant 250 mA for 60 minutes. The membranes were blocked for one hour with 10% skim milk in Tris-buffered saline (TBS; 0.9% NaCl, 10 mM Tris-HCl, pH 7.5) containing 0.5% Tween 20 (TBS-T). Primary antibodies were added in 3% skim milk and incubated overnight at 4° C. The membranes were washed 5×5 minutes with TBS-T. HRP-conjugated secondary antibodies were incubated for 120 minutes. The membranes were washed again for 5×5 minutes with TBS-T. Membranes were developed using an ECL chemiluminescence kit (GE Lifesciences) and manually exposed to developing and fixative solutions. Band density was quantified using Gel Analysis on ImageJ. A rectangular shape measured the density of bands for each lane. […]

CD3+ T cells = assay: Annexin V/propidium iodide staining; assay type: cell-based; conditions: for necrotic, apoptotic, dead or live cells (Annexin V/PI): isolated CD3+ T cells, 25 μM and 50 μM; for cell death on splenocytes: propidium iodide/annexin V staining or cell cycle analysis
From the text: Cell-cycle flow cytometry with propidium iodide was used to corroborate the above results, and ensure the reduction in proliferation was not due to cell death. […] To further investigate whether the reduction of proliferation was due to cell death, Annexin V and propidium iodide staining were used to differentiate necrotic cells (propidium iodide+), apoptotic cells (annexin V+), dead cells (propidium iodide+ and annexin V+), and live cells (propidium iodide-annexin V−).
Cell cycle staining with propidium iodide (PI) and analysis by flow cytometry gives percentage of cells in apoptosis, G1, G2, and synthesis, and apoptosis. Following a membrane permeabilization, PI chelates to DNA and level of staining specifies the stage of the cell cycle (e.g., G2 phase will have twice the DNA and thus twice the PI signal as G1 phase, apoptotic cells contain less DNA than healthy cells and are identified by low PI staining). 1×10^6 splenocytes were used per sample, with four replicates per condition. Cells were collected into a tube with PBS and centrifuged (200 r.p.m. for 5 minutes). Pellet was resuspended in 500 μl PBS and 500 μl ice cold 100% ethanol was slowly added with gentle vortexing of sample. Cell suspension was stored at 4° C. for at least 2 hours (up to two weeks). Next, the suspension was centrifuged at 200 r.p.m. for 3 minutes, pellet was resuspended in PBS and suspension was centrifuged at 200 r.p.m for 10 minutes at 4° C. Pellet was resuspended in 350 μl of PI staining buffer (50 μg/ml propidium iodide, 0.1% TritonX100, 0.2 mg Dnase free Rnase A in PBS) and incubated for 30-45 minutes at room temperature. Suspension was transferred to a FACs tube and analyzed. Annexin V/Propidium iodide staining was detected using the Annexin V FITC apoptosis detection kit (BD Biosciences, #556547), which was performed according to manufacturer's instructions.

TNFα = TNFα ELISA of LPS-stimulated bone marrow-derived macrophages; assay type: cell-based, mouse; conditions: BMDMs, 50 μM, LPS 100 ng/ml, 24 hours
Protocol: Multiple Sclerosis: Mechanisms and Immunotherapy. Neuron 97, 742-768 (2018)]. It was tested whether the sugar analogs could affect the activity of macrophages, using bone marrow-derived macrophages (BMDMs) stimulated with lipopolysaccharide (LPS, 100 ng/ml). The sugar analogs were added at 50 μM prior to LPS, and the conditioned medium was collected after 24 hours and assayed for levels of the secreted cytokine TNFα. […] Testing Toxicity of Sugar Analogs
Femurs were carefully removed from euthanized female C57BI/6 mice, and marrow was flushed into a culture plate with cold complete bone marrow growth medium (DMEM, 10% fetal bovine serum, and the supplements 1% penicillin/streptomycin, 1% glutamine, 1% non-essential amino acids, and 10% supernatant from L929 cell-line enriched in macrophage-colony stimulating factor). Cells were spun at 1100 rpm for 10 minutes, resuspended in fresh growth medium and plated at 10×10^6 cells/ml in a 10 cm culture dish. Cells were grown in DMEM with supplements and L929 supernatant for 5 days, then half the medium was replaced with fresh growth medium. On day 7 growth medium was replaced with DMEM with 10% FBS and supplements. Cells were used on day 8, and experiments were conducted in DMEM with 1% FBS and supplements unless otherwise specified.
BMDM were plated at 25,000 cells in 96-well plates in DMEM+L929 media. After 24 hours media was changed to DMEM+1% FBS. One hour later, cells were treated with […] compounds or PBS. After 1 hour LPS (final concentration 100 ng/ml) was added. Following 24 hours, conditioned media was harvested for TNFα ELISA (Thermo Scientific), which was performed according to manufacturer's instructions.

Row | SMILES | HSPG side chains (intact heparan sulfate GAGs, 10E4) [1] | necrotic, apoptotic, dead or live cells (Annexin V/PI) (CD3+ T cells) | cell death on splenocytes (CD3+ T cells) | TNFα production by LPS-stimulated macrophages (TNFα)
1 | CC(=O)NC1C(OC(C)=O)OC(COC(C)=O)C(F)(F)[C@@H]1OC(C)=O (mixture of isomers) [Compound 16, 2-Acetamido-1,3,6-tri-O-acetyl-2,4-dideoxy-4,4-difluoro-α/β-D-xylo-hexopyranose] | slight reduction in HSPG side chains | no evidence of causing non-specific cell apoptosis or necrosis; also recorded: did not display notable changes in their proportion of necrotic, apoptotic, dead, or live cells | did not show detectable cell death | did not alter cytokine level of activated macrophages
2 | CCCC(=O)OC1OC(COC(C)=O)[C@@H](F)[C@H](OC(C)=O)C1NC(C)=O (mixture of isomers) [Compound 8, 2-Acetamido-3,6-di-O-acetyl-1-O-butanoyl-2,4-dideoxy-4-fluoro-α/β-D-glucopyranose] | slight reduction in HSPG side chains | – | did not show detectable cell death | –
3 | CC(=O)NC1C(OC(C)=O)OC(COC(C)=O)[C@@H](F)C1OC(C)=O (stereo partly shown) [Compound 3, reference compound] | slight reduction in HSPG side chains | no evidence of causing non-specific cell apoptosis or necrosis; also recorded: did not display notable changes in their proportion of necrotic, apoptotic, dead, or live cells | did not show detectable cell death | did not alter cytokine level of activated macrophages
4 | CCCC(=O)OC[C@H]1OC(O)[C@H](NC(C)=O)[C@@H](OC(=O)CCC)[C@@H]1F (stereo partly drawn) [Compound 12, 2-Acetamido-3,6-di-O-butanoyl-2,4-dideoxy-4-fluoro-α/β-3-D-glucopyranose] | slight reduction in HSPG side chains | – | – | –
5 | CC(=O)NC1C(O)OC(COC(C)=O)[C@@H](F)[C@@H]1OC(C)=O (mixture of isomers) [Compound 10] | – | – | did not show detectable cell death | enhanced TNFα levels
